Measurements taken from PubChem BioAssay AID328 (DTP/NCI, 2004).
Inconclusive results and toxic doses are left out. How the source made its calls: active means survival T/C of 150% or more; inactive means T/C below 125% in these data.

Tested on: BDF1 mice, P388 leukemia ip, median survival T/C
Test: NCI In Vivo Anticancer Drug Screen. Data for tumor model P388 Leukemia (intraperitoneal) in B6D2F1 (BDF1) mice
Settings: endpoint: median survival time, higher = longer survival
Method in brief: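 In tumour-bearing mice, survival after compound treatment is set against the vehicle group and given as a quotient.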

[1] = dose: 100.0 mg/kg/injection, schedule: Q01DX009 (ip), vehicle: Klucel (hydroxypropylcellulose) (HPC)
[2] = dose: 100.0 mg/kg/injection, schedule: Q01DX009 (ip), vehicle: saline
[3] = dose: 100.0 mg/kg/injection, schedule: Q04DX003 (ip), vehicle: saline
[4] = dose: 200.0 mg/kg/injection, schedule: Q01DX009 (ip), vehicle: Klucel (hydroxypropylcellulose) (HPC)
[5] = dose: 200.0 mg/kg/injection, schedule: Q01DX009 (ip), vehicle: saline
[6] = dose: 200.0 mg/kg/injection, schedule: Q04DX003 (ip), vehicle: saline
[7] = dose: 400.0 mg/kg/injection, schedule: Q01DX009 (ip), vehicle: Klucel (hydroxypropylcellulose) (HPC)
[8] = dose: 6.25 mg/kg/injection, schedule: Q01DX009 (ip), vehicle: saline with Tween-80
[9] = dose: 50.0 mg/kg/injection, schedule: Q01DX009 (ip), vehicle: saline with Tween-80
[10] = dose: 100.0 mg/kg/injection, schedule: Q01DX009 (ip), vehicle: saline with Tween-80
[11] = dose: 200.0 mg/kg/injection, schedule: Q01DX009 (ip), vehicle: saline with Tween-80

Measured: T/C

CCCCCCCCCCCCNCCCCCCCCCCCC
inactive: dose: 1.0 mg/kg/injection, schedule: Q01DX010 (ip), vehicle: other 100 % of control | dose: 2.0 mg/kg/injection, schedule: Q01DX010 (ip), vehicle: other 100 % of control | dose: 3.0 mg/kg/injection, schedule: Q01DX010 (ip), vehicle: other 90 % of control | dose: 3.12 mg/kg/injection, schedule: Q01DX009 (ip), vehicle: Klucel (hydroxypropylcellulose) (HPC) 100 % of control | dose: 3.25 mg/kg/injection, schedule: Q01DX001 (ip), vehicle: Klucel (hydroxypropylcellulose) (HPC) 100 % of control | dose: 4.0 mg/kg/injection, schedule: Q01DX010 (ip), vehicle: other 100 % of control | dose: 6.25 mg/kg/injection, schedule: Q01DX009 (ip), vehicle: Klucel (hydroxypropylcellulose) (HPC) 90 % of control | dose: 6.5 mg/kg/injection, schedule: Q01DX001 (ip), vehicle: Klucel (hydroxypropylcellulose) (HPC) 100 % of control | dose: 8.0 mg/kg/injection, schedule: Q01DX010 (ip), vehicle: water 100 % of control | dose: 12.5 mg/kg/injection, schedule: Q01DX009 (ip), vehicle: Klucel (hydroxypropylcellulose) (HPC) 95 % of control | dose: 13.0 mg/kg/injection, schedule: Q01DX001 (ip), vehicle: Klucel (hydroxypropylcellulose) (HPC) 100 % of control | dose: 18.0 mg/kg/injection, schedule: Q01DX009 (ip), vehicle: Klucel (hydroxypropylcellulose) (HPC) 95 % of control | dose: 60.0 mg/kg/injection, schedule: Q01DX001 (ip), vehicle: Klucel (hydroxypropylcellulose) (HPC) 100 % of control | dose: 90.0 mg/kg/injection, schedule: Q01DX001 (ip), vehicle: Klucel (hydroxypropylcellulose) (HPC) 100 % of control | dose: 130.0 mg/kg/injection, schedule: Q01DX001 (ip), vehicle: Klucel (hydroxypropylcellulose) (HPC) 105 % of control | dose: 135.0 mg/kg/injection, schedule: Q01DX001 (ip), vehicle: Klucel (hydroxypropylcellulose) (HPC) 104 % of control | dose: 200.0 mg/kg/injection, schedule: Q01DX001 (ip), vehicle: Klucel (hydroxypropylcellulose) (HPC) 115 % of control | dose: 300.0 mg/kg/injection, schedule: Q01DX001 (ip), vehicle: Klucel (hydroxypropylcellulose) (HPC) 110 % of control | dose: 305.0 mg/kg/injection, schedule: Q01DX001 (ip), vehicle: Klucel (hydroxypropylcellulose) (HPC) 109 % of control

O=C(O)C1=NN(c2cc(Cl)c(S(=O)(=O)O)cc2Cl)C(=O)C1
inactive: [1] 100 % of control | [2] 110 % of control | [3] 95 % of control | dose: 175.0 mg/kg/injection, schedule: Q01DX009 (ip), vehicle: other 100 % of control | [4] 108 % of control | [5] 120 % of control | [6] 95 % of control | dose: 265.0 mg/kg/injection, schedule: Q01DX009 (ip), vehicle: other 88 % of control | [7] 104 % of control | dose: 400.0 mg/kg/injection, schedule: Q01DX009 (ip), vehicle: other 100 % of control | dose: 400.0 mg/kg/injection, schedule: Q04DX003 (ip), vehicle: saline 118 % of control | dose: 600.0 mg/kg/injection, schedule: Q01DX009 (ip), vehicle: other 88 % of control

C[N+](C)(CC(=O)Nc1ccc(Cl)c(Cl)c1)Cc1ccc(Cl)c(Cl)c1
inactive: [8] 120 % of control | dose: 12.5 mg/kg/injection, schedule: Q01DX009 (ip), vehicle: saline with Tween-80 108 % of control

CCN(C(=O)C(F)(F)F)C1(c2ccc(Cl)cc2)CCCCC1SSSC1CCCCC1(c1ccc(Cl)cc1)N(CC)C(=O)C(F)(F)F (configuration not stated)
inactive: dose: 100.0 mg/kg/injection, schedule: Q04DX003 (ip), vehicle: saline with Tween-80 100 % of control | dose: 200.0 mg/kg/injection, schedule: Q04DX003 (ip), vehicle: saline with Tween-80 100 % of control | dose: 400.0 mg/kg/injection, schedule: Q04DX003 (ip), vehicle: saline with Tween-80 104 % of control

Nc1nc(Cc2ccccc2)c(CCCNc2ccccc2)c(=O)[nH]1
inactive: [8] 107 % of control | dose: 25.0 mg/kg/injection, schedule: Q01DX009 (ip), vehicle: saline with Tween-80 98 % of control | [9] 96 % of control

N#Cc1ccc(/C=N/NC(N)=S)s1
inactive: [9] 97 % of control | [10] 102 % of control | [11] 97 % of control

CCC(O)Cc1c[nH]c(=O)[nH]c1=O (configuration not stated)
inactive: dose: 50.0 mg/kg/injection, schedule: Q01DX009 (ip), vehicle: saline 90 % of control | dose: 50.0 mg/kg/injection, schedule: Q04DX003 (ip), vehicle: saline 104 % of control | [2] 105 % of control | [3] 102 % of control | [5] 112 % of control | [6] 109 % of control

COc1ccc2c(c1C)CCC1(CO)C(C(C)=O)=CCC21 (configuration not stated)
inactive: [1] 109 % of control | dose: 100.0 mg/kg/injection, schedule: Q04DX003 (ip), vehicle: Klucel (hydroxypropylcellulose) (HPC) 100 % of control | [4] 95 % of control | dose: 200.0 mg/kg/injection, schedule: Q04DX003 (ip), vehicle: Klucel (hydroxypropylcellulose) (HPC) 100 % of control | [7] 100 % of control | dose: 400.0 mg/kg/injection, schedule: Q04DX003 (ip), vehicle: Klucel (hydroxypropylcellulose) (HPC) 100 % of control

CC1C[N+](C)(C)N=C1[O-] (configuration not stated)
inactive: dose: 100.0 mg/kg/injection, schedule: Q01DX001 (ip), vehicle: saline 109 % of control | dose: 200.0 mg/kg/injection, schedule: Q01DX001 (ip), vehicle: saline 90 % of control | dose: 400.0 mg/kg/injection, schedule: Q01DX001 (ip), vehicle: saline 109 % of control

Cc1cc(Cl)nc(Cl)c1C(N)=O
inactive: dose: 50.0 mg/kg/injection, schedule: Q01DX005 (ip), vehicle: saline with Tween-80 100 % of control | dose: 100.0 mg/kg/injection, schedule: Q01DX005 (ip), vehicle: saline with Tween-80 100 % of control | dose: 200.0 mg/kg/injection, schedule: Q01DX005 (ip), vehicle: saline with Tween-80 100 % of control

C[C@]12CC[C@H]3[C@@H](CC[C@]4(O)C[C@@H](O)CC[C@]34/C=N/O)[C@@]1(O)CC[C@@H]2C1=COC(=O)C1
inactive: dose: 1.87 mg/kg/injection, schedule: Q01DX010 (ip), vehicle: carboxymethylcellulose (CMC) 94 % of control | dose: 3.75 mg/kg/injection, schedule: Q01DX010 (ip), vehicle: carboxymethylcellulose (CMC) 100 % of control | dose: 7.5 mg/kg/injection, schedule: Q01DX010 (ip), vehicle: carboxymethylcellulose (CMC) 111 % of control | dose: 15.0 mg/kg/injection, schedule: Q01DX010 (ip), vehicle: carboxymethylcellulose (CMC) 116 % of control | dose: 30.0 mg/kg/injection, schedule: Q01DX010 (ip), vehicle: carboxymethylcellulose (CMC) 111 % of control | dose: 60.0 mg/kg/injection, schedule: Q01DX010 (ip), vehicle: carboxymethylcellulose (CMC) 122 % of control

Cc1ccc(S(=O)(=O)Oc2ccc(-c3ccc(OS(=O)(=O)c4ccc(C)cc4)cc3)cc2)cc1
inactive: [9] 107 % of control | [10] 111 % of control | [11] 90 % of control | dose: 400.0 mg/kg/injection, schedule: Q01DX009 (ip), vehicle: saline with Tween-80 94 % of control

CCn1c2ccc([N+](=O)[O-])cc2c2c([N+](=O)[O-])cccc21
inactive: dose: 100.0 mg/kg/injection, schedule: Q01DX001 (ip), vehicle: saline with Tween-80 110 % of control | dose: 200.0 mg/kg/injection, schedule: Q01DX001 (ip), vehicle: saline with Tween-80 100 % of control | dose: 400.0 mg/kg/injection, schedule: Q01DX001 (ip), vehicle: saline with Tween-80 94 % of control

Nc1cc(=O)[nH]c(O)c1C(=O)O
inactive: dose: 6.25 mg/kg/injection, schedule: Q04DX003 (ip), vehicle: saline 109 % of control | dose: 12.5 mg/kg/injection, schedule: Q04DX003 (ip), vehicle: saline 100 % of control | dose: 25.0 mg/kg/injection, schedule: Q04DX003 (ip), vehicle: saline 100 % of control | dose: 35.0 mg/kg/injection, schedule: Q04DX003 (ip), vehicle: saline 100 % of control | dose: 55.0 mg/kg/injection, schedule: Q04DX003 (ip), vehicle: saline 113 % of control | dose: 80.0 mg/kg/injection, schedule: Q04DX003 (ip), vehicle: saline 100 % of control | dose: 120.0 mg/kg/injection, schedule: Q04DX003 (ip), vehicle: saline 104 % of control | dose: 180.0 mg/kg/injection, schedule: Q04DX003 (ip), vehicle: saline 86 % of control | dose: 270.0 mg/kg/injection, schedule: Q04DX003 (ip), vehicle: saline 100 % of control
